Results as given in article PMC8364686, “Safety, tolerability, pharmacokinetics and pharmacodynamics of single oral doses of BI 187004, an inhibitor of 11beta-hydroxysteroid dehydrogenase-1, in healthy male volunteers with overweight or obesity” (Clinical Diabetes and Endocrinology, 2021).

Assay: Plasma pharmacokinetics of BI 187004 after single oral doses (LC–MS/MS)
Conditions: male, human, plasma, po; for concentration at 36 h: planned time 36 h; for concentration at 48 h: planned time 48 h; for concentration at 72 h: planned time 72 h; for concentration at 96 h: planned time 96 h; for concentration at 0.5 h: planned time 0.5 h; for concentration at 1 h: planned time 1 h; for concentration at 1.5 h: planned time 1.5 h; for concentration at 2 h: planned time 2 h; for concentration at 2.5 h: planned time 2.5 h; for concentration at 3 h: planned time 3 h; for concentration at 4 h: planned time 4 h; for concentration at 5 h: planned time 5 h; for concentration at 6 h: planned time 6 h; for concentration at 8 h: planned time 8 h; for concentration at 10 h: planned time 10 h; for concentration at 12 h: planned time 12 h
[1] = 80 mg, BI 187004 plasma concentrations, 80 mg single oral, Max
[2] = 80 mg, BI 187004 plasma concentrations, 80 mg single oral, Mean
[3] = 80 mg, BI 187004 plasma concentrations, 80 mg single oral, Median
[4] = 80 mg, BI 187004 plasma concentrations, 80 mg single oral, Min
[5] = 80 mg, BI 187004 plasma concentrations, 80 mg single oral, gMean
[6] = 160 mg, BI 187004 plasma concentrations, 160 mg single oral, Max
[7] = 160 mg, BI 187004 plasma concentrations, 160 mg single oral, Mean
[8] = 160 mg, BI 187004 plasma concentrations, 160 mg single oral, Median
[9] = 160 mg, BI 187004 plasma concentrations, 160 mg single oral, Min
[10] = 160 mg, BI 187004 plasma concentrations, 160 mg single oral, gMean
[11] = 160 mg, BI 187004 plasma concentrations, 160 mg single oral, individual subjects

## N#Cc1ccc2c(c1)[C@H]1CCCN(C(=O)c3ccc4[nH]cnc4c3)[C@H]1C2 [BI 187004]
80 mg, BI 187004 plasma concentrations, 80 mg single oral, planned time 24 h, Median
  concentration at 24 h: 0.812 µM
80 mg, BI 187004 plasma concentrations, 80 mg single oral, planned time 24 h, Min
  concentration at 24 h: 0.605 µM
80 mg, BI 187004 plasma concentrations, 80 mg single oral, planned time 24 h, gMean
  concentration at 24 h: 0.878 µM
[1]
  concentration at 36 h: 0.678 µM
  concentration at 48 h: 0.596 µM
  concentration at 72 h: 0.234 µM
  concentration at 96 h: 0.11 µM
[2]
  concentration at 36 h: 0.411 µM
  concentration at 48 h: 0.281 µM
  concentration at 72 h: 0.09 µM
  concentration at 96 h: 0.0449 µM
[3]
  concentration at 36 h: 0.372 µM
  concentration at 48 h: 0.23 µM
  concentration at 72 h: 0.0651 µM
  concentration at 96 h: 0.0238 µM
[4]
  concentration at 36 h: 0.223 µM
  concentration at 48 h: 0.134 µM
  concentration at 72 h: 0.0463 µM
  concentration at 96 h: 0.0119 µM
[5]
  concentration at 36 h: 0.383 µM
  concentration at 48 h: 0.247 µM
  concentration at 72 h: 0.0742 µM
  concentration at 96 h: 0.0323 µM
80 mg, C24 gMean (%gCV), 80 mg single oral dose
  concentration at 24 h: 0.878 µM
160 mg
  AUC(0-inf): 111 µM·h
  AUC(0-t): 82.1 µM·h
  Cmax: 8.31 µM
  Tmax: 1 h
  Vd/F: 87.9 L
  half-life: 14.5 h
[6]
  concentration at 0.5 h: 8.78 µM
  concentration at 1 h: 8.74 µM
  concentration at 1.5 h: 8.83 µM
  concentration at 2 h: 8.64 µM
  concentration at 2.5 h: 8.03 µM
  concentration at 3 h: 7.45 µM
  concentration at 4 h: 6.75 µM
  concentration at 5 h: 5.22 µM
  concentration at 6 h: 5.32 µM
  concentration at 8 h: 4.58 µM
  concentration at 10 h: 4.29 µM
  concentration at 12 h: 3.64 µM
[7]
  concentration at 0.5 h: 6.38 µM
  concentration at 1 h: 7.26 µM
  concentration at 1.5 h: 7.28 µM
  concentration at 2 h: 7.07 µM
  concentration at 2.5 h: 6.73 µM
  concentration at 3 h: 5.95 µM
  concentration at 4 h: 5.8 µM
  concentration at 5 h: 4.87 µM
  concentration at 6 h: 4.34 µM
  concentration at 8 h: 3.72 µM
  concentration at 10 h: 3.09 µM
  concentration at 12 h: 2.99 µM
[8]
  concentration at 0.5 h: 6.83 µM
  concentration at 1 h: 7.64 µM
  concentration at 1.5 h: 7.38 µM
  concentration at 2 h: 6.79 µM
  concentration at 2.5 h: 6.55 µM
  concentration at 3 h: 5.8 µM
  concentration at 4 h: 5.79 µM
  concentration at 5 h: 4.9 µM
  concentration at 6 h: 4.23 µM
  concentration at 8 h: 3.74 µM
  concentration at 10 h: 3.04 µM
  concentration at 12 h: 2.91 µM
[9]
  concentration at 0.5 h: 2.52 µM
  concentration at 1 h: 3.92 µM
  concentration at 1.5 h: 5.19 µM
  concentration at 2 h: 6.36 µM
  concentration at 2.5 h: 6.07 µM
  concentration at 3 h: 5.33 µM
  concentration at 4 h: 5.06 µM
  concentration at 5 h: 4.42 µM
  concentration at 6 h: 3.43 µM
  concentration at 8 h: 2.58 µM
  concentration at 10 h: 1.94 µM
  concentration at 12 h: 2.71 µM
[10]
  concentration at 0.5 h: 5.86 µM
  concentration at 1 h: 7.04 µM
  concentration at 1.5 h: 7.19 µM
  concentration at 2 h: 7.03 µM
  concentration at 2.5 h: 6.7 µM
  concentration at 3 h: 5.91 µM
  concentration at 4 h: 5.77 µM
  concentration at 5 h: 4.86 µM
  concentration at 6 h: 4.29 µM
  concentration at 8 h: 3.67 µM
  concentration at 10 h: 3 µM
  concentration at 12 h: 2.97 µM
[11]
  concentration at 1.5 h: 7.48 µM
  concentration at 2 h: 7.23 µM
  concentration at 2.5 h: 6.93 µM
  concentration at 3 h: 5.47 µM
  concentration at 4 h: 5.23 µM
  concentration at 5 h: 4.42 µM
  concentration at 6 h: 4.03 µM
  concentration at 8 h: 3.65 µM
  concentration at 12 h: 2.71 µM
160 mg, BI 187004 plasma concentrations, 160 mg single oral, planned time 24 h, Max
  concentration at 24 h: 2.69 µM
160 mg, BI 187004 plasma concentrations, 160 mg single oral, planned time 24 h, Mean
  concentration at 24 h: 1.68 µM
160 mg, BI 187004 plasma concentrations, 160 mg single oral, planned time 24 h, Median
  concentration at 24 h: 1.49 µM
160 mg, BI 187004 plasma concentrations, 160 mg single oral, planned time 24 h, Min
  concentration at 24 h: 1.36 µM
160 mg, BI 187004 plasma concentrations, 160 mg single oral, planned time 24 h, gMean
  concentration at 24 h: 1.63 µM
160 mg, BI 187004 plasma concentrations, 160 mg single oral, planned time 24 h, individual subjects
  concentration at 24 h: 1.36 µM
